Laboratory results published in article PMC2410169, “N-hexanoyl-sphingomyelin potentiates in vitro doxorubicin cytotoxicity by enhancing its cellular influx” (British Journal of Cancer, 2004).
Like-named read-outs stand apart in the source and are kept apart here.

How the values were obtained:
[1] = test system: control renal fibroblasts; test: Cellular doxorubicin accumulation in control kidney fibroblasts; type: cell-based, mice; details: Table 2, C6-SM 10 μM, 60 min
Experimental: (§1) The following cell types were cultured in Dulbecco's modified Eagle's medium (DMEM) containing 10% (v v^−1) foetal calf serum: primary bovine aortic endothelial cells (BAEC; passage 14–19), kindly provided by Dr A Haimovitz-Friedman (Memorial Sloan-Kettering Cancer Center, New York City NY, USA); MCF-7, KB and A431 carcinoma cells, purchased from the American Type Culture Collection (Manassas VA, USA); SV40 large-T antigen-immortalised kidney fibroblasts from Mrp1/Mdr1a/Mdr1b triple knockout mice and control renal fibroblasts ([Wijnholds et al, 2000]; kindly provided by Dr AH Schinkel, The Netherlands Cancer Institute, Amsterdam). […] All culture media were supplemented with 100 U ml^−1 penicillin, 100 μg ml^−1 streptomycin and 4 mM L-glutamine. For intracellular doxorubicin measurements, cells were cultured in flat-bottom 96-well plates. […] After washing with ice-cold PBS, cells were lysed in 1% (w v^−1) Triton X-100 in water. Native fluorescence intensities were then measured by a Perkin-Elmer Victor Wallac II fluorescence microplate reader, using λex 485 nm and λem 535 nm filters.

[2] = test system: BAEC; test: Plasma membrane integrity: uptake of fluid phase marker hydrazide-AF488; type: cell-based, bovine; details: 10 μM C6-SM
Experimental: Confluent and serum-free BAEC were incubated for 120 min in the presence of C6-SM and 175 μM of the membrane impermeant fluid phase marker hydrazide-AF488. After washing, cells were lysed in PBS containing 1% (w v^−1) Triton X-100 and fluorescence was measured at λex 485 nm and λem 535 nm. […] All data were corrected for protein contents, as determined with the BCA assay ([Smith et al, 1985]).

[3] = test system: BAEC; test: Raft-mediated endocytosis: AF488-CTB uptake; type: cell-based, bovine; details: 10 μM C6-SM, 120 min
Experimental: (§2) To monitor clathrin- and raft-mediated endocytic activity, confluent BAEC were allowed to take up AF488-transferrin (150 μg ml^−1) or AF488-CTB (75 μg ml^−1), respectively. Incubations were performed under serum-free conditions in the presence of 10 μM C6-SM during 120 min. Cells were then washed and lysed in PBS containing 1% (v v^−1) Triton X-100. Fluorescence was then measured at λex 485 nm and λem 535 nm.

[4] = test system: BAEC; test: Clathrin-mediated endocytosis: AF488-transferrin uptake; type: cell-based, bovine; details: 10 μM C6-SM, 120 min
Experimental: as §2

[5] = test system: BAEC
Experimental: For viability assessment, cells were cultured in flat-bottom 96-well plates. After experimental treatments, 100 μg of the mitochondrial dehydrogenase substrate MTT was added to each well ([Carmichael et al, 1987]). Cells were then incubated for 60 min at 37°C. After centrifugation (3000 rpm, 10 min) supernatants were removed. The precipitated blue formazan products were then dissolved in 100 μl DMSO and absorbencies were read in a Bio-Tek Instruments EL 340 photospectrometric microplate reader at 540 nm. Background absorbencies were subtracted and values from untreated control cells were set at 100% viability.
After washing away remaining extracellular drug and lipid, cells were cultured for another 48 h. Viability was then assessed by the MTT assay, which relies on the fact that only mitochondria of viable cells have the capacity to convert the MTT substrate ([Carmichael et al, 1987]).

[6] = test system: kidney fibroblasts from Mrp1/Mdr1a/Mdr1b triple knockout mice; test: Cellular doxorubicin accumulation in ABC-transporter knockout fibroblasts; type: cell-based; details: like in normal fibroblasts
Experimental: as §1

[7] = test system: A431 (epidermoid carcinoma); test: Cellular doxorubicin accumulation, fluorimetry of cell lysates; type: cell-based, human; details: 50 μM doxorubicin, 60 min
Experimental: (§3) For intracellular doxorubicin measurements, cells were cultured in flat-bottom 96-well plates. At confluence, cells were changed to a serum-free medium and exposed to 50 μM doxorubicin during 60 min (unless indicated otherwise). After washing with ice-cold PBS, cells were lysed in 1% (w v^−1) Triton X-100 in water. Native fluorescence intensities were then measured by a Perkin-Elmer Victor Wallac II fluorescence microplate reader, using λex 485 nm and λem 535 nm filters. Additional probes and drugs that were tested for cellular uptake during 60 min incubations, either in the absence or presence of lipid, were hydrazide-AF488 (35 μM, λex 485 nm, λem 535 nm), sulphorodamine-101 (400 μM, λex 355 nm, λem 620 nm), propidium iodide (300 μM, λex 355 nm, λem 535 nm), o-phtaldialdehyde (1 mM, λex 485 nm, λem 535 nm), topotecan (30 μM, λex 355 nm, λem 535 nm), epirubicin (50 μM, λex 485 nm, λem 535 nm), bisbenzimidine (10 μM, λex 355 nm, λem 460 nm), camptothecin (30 μM, λex 355 nm, λem 460 nm), daunorubicin (25 μM, λex 485 nm, λem 535 nm) and idarubicin (20 μM, λex 485 nm, λem 535 nm).

[8] = test system: MCF-7 (mammary adenocarcinoma); test: as above; type: cell-based, human; details: 50 μM doxorubicin, 60 min
Experimental: as §3

[9] = test system: KB (oesophagal carcinoma); test: as above; type: cell-based, human; details: 50 μM doxorubicin, 60 min
Experimental: as §3

[10] = test system: BAEC; type: cell-based, bovine
Experimental: as §3

[11] = test system: A431 cells; test: Cell viability, MTT assay; type: cell-based, human; details: A431, with C6-SM vs none
Experimental: After centrifugation (3000 rpm, 10 min) supernatants were removed.

SMILES: CCCCCCCCCCCCCC=CC(O)C(COP(=O)([O-])OCC[N+](C)(C)C)NC(=O)CCCCC (centres unmarked) [C6-SM, N-hexanoyl-sphingomyelin]
- Doxorubicin (% of control±s.d.) [1]: 331.8±50.2 % of control
- Hydrazide-AF488 uptake compared to 100% control uptake [2]: 97.4±18.2%
- CTB uptake compared to 100% uptake under control conditions [3]: 80±23%
- Transferrin uptake compared to 100% uptake under control conditions [4]: 67±36%
- Toxicity of C6-SM itself [5]: virtually nontoxic
- Increase in doxorubicin sensitivity ([5]; BAEC, 10 μM C6-SM vs none): seven-fold increase in sensitivity
- Increase compared to doxorubicin uptake in the absence of the lipid analogue [6]: three- to four-fold increase
- Concentration-dependent C6-SM effect on doxorubicin accumulation compared with BAEC [7]: Comparable results
- Concentration-dependent C6-SM effect on doxorubicin accumulation compared with BAEC [8]: Comparable results
- Concentration-dependent C6-SM effect on doxorubicin accumulation compared with BAEC [9]: Comparable results
- C6-SM concentration at which the plateau in doxorubicin-uptake enhancement and cytotoxicity is reached [10]: about 8 μM
- Enhanced doxorubicin uptake after washing away C6-SM not taken up by the cells [10]: remained
- Increase of intracellular doxorubicin over control levels ([10]; 10 μM C6-SM, 50 μM doxorubicin, incubation periods of 15–60 min): up to 300%
- Doxorubicin (% of control±s.d.) ([10]; 10 μM lipid analogue with 50 μM doxorubicin, 60 min, control = no lipid, no ethanol, n=3): 328.3±24.4 % of control
- Lipid concentration giving a significant increase in drug uptake ([10]; 50 μM doxorubicin, 60 min): 2 µM
- Doxorubicin (% of control±s.d.) ([10]; Table 2, C6-SM 10 μM + ATP depletion): 410.9±157.0 % of control
- Doxorubicin (% of control±s.d.) ([10]; Table 2, C6-SM 10 μM + MK571 12.5 μM): 323.3±23.0 % of control
- Doxorubicin (% of control±s.d.) ([10]; Table 2, C6-SM 10 μM + PSC833 5 μM): 278.1±40.7 % of control
- Doxorubicin (% of control±s.d.) ([10]; Table 2, C6-SM 10 μM alone, 60 min, n=3): 369.0±113.0 % of control
- Doxorubicin (% of control±s.d.) ([10]; Table 4, C6-SM 10 μM after CDX 10 mM, 30 min): 264.7±72.1 % of control
- Doxorubicin (% of control±s.d.) ([10]; Table 4, C6-SM 10 μM after PPMP 30 μM, 96 h): 340.7±78.6 % of control
- Doxorubicin (% of control±s.d.) ([10]; Table 4, C6-SM 10 μM after bSMase 200 mU ml^−1, 2 h): 386.2±74.7 % of control
- Doxorubicin (% of control±s.d.) ([10]; Table 4, C6-SM 10 μM, no pretreatment, n=3): 353.3±62.6 % of control
- Maximum increase in doxorubicin uptake over control values ([10]; at 6 μM C6-SM, 50 μM doxorubicin, 60 min): 300%
- C6-SM-stimulated doxorubicin uptake under conditions that block endocytosis ([10]; cells at 4°C or depleted for ATP (sodium azide and deoxyglucose)): remained unaffected
- Active concentrations ([10]; doxorubicin uptake enhancement): 2 to 6 µM
- Drug uptake-enhancing effect after removal of membrane-inserted C6-SM ([10]; hydrolysis by exogenous bSMase or BSA back-exchange, not shown): strongly diminished
- Enhanced uptake of doxorubicin ([10]; low micromolar amounts of lipid (abstract)): up to 300%
- Increase in drug sensitivity [11]: 14 fold
